Data: US6737409B2, “Dolastatin 10 derivatives” (Hoffmann-La Roche Inc., priority 2001, dated 2004)
Read-outs that look alike come from different tables or passages of the source.

Columns and labels:
[1] = Maximum tolerated dose (MTD) by i.v. administration in mice; conditions: mouse, in vivo, iv, read-out: maximum tolerated doses (MTD)
Experimental: The maximum tolerated doses (MTD) of the following representative compounds
of the present invention were examined by i.v. administration in mice. The respective MTD values of the compounds were 14, 18, 10, 8, 8, 2 and 2 mg/kg.

HCT 116 = test: Antiproliferative activity assay (WST-8); type: cell-based
Experimental: Antiproliferative activity assay was carried out as follows. A single suspension of tumor cells was inoculated to the serially diluted 96-well microtestplate. Then the testplate was incubated in the 5% CO2 ambience at 37° C. for 4 days (2-3×10^3 cells/well). The degree of cell growth in a monolayer was measured by using WST-8 (Dojindo, Japan). IC50 values of drugs against tumor cells were calculated as the concentration of drug yielding 50% OD of the control growth.

[2] = Homo sapiens, HCT-116, 96 h, incubated 4 days, WST-8, concentration of drug yielding 50% OD of the control growth, read-out: HCT 116 IC50
[3] = Homo sapiens, HCT-116, 96 h, read-out: HCT 116 IC50 (nM)

CCC(C)C(C(CC(=O)N1CCCC1C(CC(=O)NCCc1ccccc1)SC(C)C)OC)N(C)C(=O)C(NC(=O)C(NC)C(C)C)C(C)C (stereo not drawn) [N-[1-({1-sec-Butyl-4-[2-(1-isopropylsulfanyl-2-phenethylcarbamoyl-ethyl)-pyrrolidin-1-yl]-2-methoxy-4-oxo-butyl}-methyl-carbamoyl)-2-methyl-propyl]-3-methyl-2-methylamino-butyramide]
MTD [1]: 10 mg/kg
IC50 (HCT 116; [2]): 0.65 nM

CCC(C)C(C(CC(=O)N1CCCC1C(CC(=O)NCCc1ccccc1)SC)OC)N(C)C(=O)C(NC(=O)C(NC)C(C)C)C(C)C (stereo not drawn) [N-[1-({1-sec-Butyl-2-methoxy-4-[2-(1-methylsulfanyl-2-phenethylcarbamoylethyl)pyrrolidin-1-yl]-4-oxo-butyl}-methyl-carbamoyl)-2-methyl-propyl]-3-methyl-2-methylamino-butyramide]
MTD [1]: 14 mg/kg
IC50 (HCT 116; [2]): 0.12 nM

CCSC(C(C)C(=O)NCCc1cccc(O)c1)C1CCCN1C(=O)CC(OC)C(C(C)CC)N(C)C(=O)C(NC(=O)C(C(C)C)N(C)C)C(C)C (single isomer, unassigned) [N-(1-{[1-sec-Butyl-4-(2-{1-ethylsulfanyl-2-[2-(3-hydroxy-phenyl)-ethylcarbamoyl]-propyl}-pyrrolidin-1-yl)-2-methoxy-4-oxo-butyl]-methyl-carbamoyl}-2-methyl-propyl)-2-dimethylamino-3-methyl-butyramide]
MTD [1]: 2 mg/kg
IC50 (HCT 116; [3]): 0.84 nM

CCC(C)C(C(CC(=O)N1CCCC1C(SC)C(C)C(=O)NCCc1cccc(O)c1)OC)N(C)C(=O)C(NC(=O)C(C(C)C)N(C)C)C(C)C (single isomer, unassigned) [N-(1-{[1-sec-Butyl-4-(2-{2-[2-(3-hydroxy-phenyl)-ethylcarbamoyl]-1-methylsulfanyl-propyl}-pyrrolidin-1-yl)-2-methoxy-4-oxo-butyl]-methyl-carbamoyl}-2-methyl-propyl)-2-dimethylamino-3-methyl-butyramide]
MTD [1]: 2 mg/kg
IC50 (HCT 116; [3]): 0.19 nM

CCC(C)C(C(CC(=O)N1CCCC1C(CC(=O)NCCc1ccccc1)SC(C)(C)C)OC)N(C)C(=O)C(NC(=O)C(C(C)C)N(C)C)C(C)C (stereo not drawn) [N-[1-({1-sec-Butyl-4-[2-(1-tert-butylsulfanyl-2-phenethylcarbamoyl-ethyl)-pyrrolidin-1-yl]-2-methoxy-4-oxo-butyl}-methyl-carbamoyl)-2-methyl-propyl]-2-dimethylamino-3-methyl-butyramide]
IC50 (HCT 116; [2]): 0.17 nM

CCC(C)C(C(CC(=O)N1CCCC1C(SC)C(C)C(=O)N(C)CCc1cccc(O)c1)OC)N(C)C(=O)C(NC(=O)C(C(C)C)N(C)C)C(C)C (single isomer, unassigned) [N-[1-({1-sec-Butyl-4-[2-(2-{[2-(3-hydroxy-phenyl)-ethyl]-methyl-carbamoyl}-1-methylsulfanyl-propyl)-pyrrolidin-1-yl]-2-methoxy-4-oxo-butyl}-methyl-carbamoyl)-2-methyl-propyl]-2-dimethylamino-3-methyl-butyramide]
MTD [1]: 8 mg/kg
IC50 (HCT 116; [2]): 0.66 nM

CCC(C)C(C(CC(=O)N1CCCC1C(SC)C(C)C(=O)NCCc1ccccc1)OC)N(C)C(=O)C(NC(=O)C(NC)C(C)C)C(C)C (stereo not drawn) [N-[-({1-sec-Butyl-2-methoxy-4-[2-(1-methylsulfanyl-2-phenethylcarbamoyl-propyl)-pyrrolidin-1-yl]-4-oxo-butyl}-methyl-carbamoyl)-2-methyl-propyl]-2-methylamino-3 methyl-butyramide]
IC50 (HCT 116; incubated 4 days, WST-8, concentration of drug yielding 50% OD of the control growth, read-out: HCT 116 IC50): 1 nM

CCNC(=O)OCCSC(CC(=O)NCCc1ccccc1)C1CCCN1C(=O)CC(OC)C(C(C)CC)N(C)C(=O)C(NC(=O)C(C(C)C)N(C)C)C(C)C (stereo not drawn) [Ethyl-carbamic acid 2-{1-[1-(4-{[2-(2-dimethylamino-3-methyl-butyrylamino)-3-methyl-butyryl]-methyl-amino}-3-methoxy-5-methyl-heptanoyl)-pyrrolidin-2-yl]-2-phenethylcarbamoyl-ethylsulfanyl}-ethyl ester]
IC50 (HCT 116; [2]): 0.97 nM

CCCCCSC(CC(=O)NCCc1ccccc1)C1CCCN1C(=O)CC(OC)C(C(C)CC)N(C)C(=O)C(NC(=O)C(C(C)C)N(C)C)C(C)C (stereo not drawn) [N-[1-({1-sec-Butyl-2-methoxy-4-oxo-4-[2-(1-pentylsulfanyl-2-phenethylcarbamoyl-ethyl)-pyrrolidin-1-yl]-butyl}-methyl-carbamoyl)-2-methyl-propyl]-2-dimethylamino-3-methyl-butyramide]
IC50 (HCT 116; [2]): 0.75 nM

CCSC(C(C)C(=O)N(C)CCc1cccc(O)c1)C1CCCN1C(=O)CC(OC)C(C(C)CC)N(C)C(=O)C(NC(=O)C(C(C)C)N(C)C)C(C)C (single isomer, unassigned) [N-[1-({1-sec-Butyl-4-[2-(1-ethylsulfanyl-2-{[2-(3-hydroxy-phenyl)-ethyl]-methyl-carbamoyl}-propyl)-pyrrolidin-1-yl]-2-methoxy-4-oxo-butyl}-methyl-carbamoyl)-2-methyl-propyl]-2-dimethylamino-3-methyl-butyramide]
MTD [1]: 8 mg/kg
IC50 (HCT 116; [2]): 0.11 nM

CCC(C)C(C(CC(=O)N1CCCC1C(CC(=O)NCCc1ccccc1)Sc1ccccc1)OC)N(C)C(=O)C(NC(=O)C(C(C)C)N(C)C)C(C)C (stereo not drawn) [N-[1-({1-sec-Butyl-2-methoxy-4-oxo-4-[2-(2-phenethylcarbamoyl-1-phenylsulfanyl-ethyl)-pyrrolidin-1-yl]-butyl}-methyl-carbamoyl)-2-methyl-propyl]-2-dimethylamino-3-methyl-butyramide]
IC50 (HCT 116; [2]): 0.33 nM

CCSC(CC(=O)NCCc1ccccc1)C1CCCN1C(=O)CC(OC)C(C(C)CC)N(C)C(=O)C(NC(=O)C(NC)C(C)C)C(C)C (stereo not drawn) [N-[1-({1-sec-Butyl-4-[2-(1-ethylsulfanyl-2-phenethylcarbamoyl-ethyl)-pyrrolidin-1-yl]-2-methoxy-4-oxo-butyl}-methyl-carbamoyl)-2-methyl-propyl]-3-methyl-2-methylamino-butyramide]
IC50 (HCT 116; [2]): 0.5 nM

CCC(C)C(C(CC(=O)N1CCCC1C(CC(=O)NCCc1ccccc1)SCCOC(C)=O)OC)N(C)C(=O)C(NC(=O)C(C(C)C)N(C)C)C(C)C (stereo not drawn) [Acetic acid 2-{1-[1-(4-{[2-(2-dimethylamino-3-methyl-butyrylamino)-3-methyl-butyryl]-methyl-amino}-3-methoxy-5-methyl-heptanoyl)-pyrrolidin-2-yl]-2-phenethylcarbamoyl-ethylsulfanyl}-ethyl ester]
IC50 (HCT 116; [2]): 0.19 nM

CCC(C)C(C(CC(=O)N1CCCC1C(CC(=O)NCCc1ccccc1)S(C)(=O)=O)OC)N(C)C(=O)C(NC(=O)C(NC)C(C)C)C(C)C (stereo not drawn) [N-[1-({1-sec-Butyl-4-[2-(1-methanesulfonyl-2-phenethylcarbamoyl-ethyl)-pyrrolidin-1-yl]-2-methoxy-4-oxo-butyl}-methyl-carbamoyl)-2-methyl-propyl]-3-methyl-2-methylamino-butyramide]
MTD [1]: 18 mg/kg
IC50 (HCT 116; [2]): 0.77 nM
